Test results reported in patent publication US11840686B2, “Modulation of prekallikrein (PKK) expression” (Ionis Pharmaceuticals, Inc., priority 2013, dated 2023).
Strand notation (5' to 3'): a small letter for the sugar, then the base; units joined by * are phosphorothioate-linked, units joined directly phosphodiester-linked; [ ] holds rarer units or linkages, { } end groups; capitals alone tell only the bases. e = 2'-O-(2-methoxyethyl) (MOE); [5mC] = 5-methylcytosine; d = 2'-deoxy (DNA)

How the values were obtained:
[1] = system: captopril-induced vascular permeability; assay: Dose-dependent effect on captopril-induced vascular permeability, Evans Blue OD600 (Example 13); type: in vivo, mouse; conditions: for OD600 nm of Evans Blue dye, Colon / OD600 nm of Evans Blue dye, Ears / OD600 nm of Evans Blue dye, Feet / OD600 nm of Evans Blue dye, Intestine: captopril Yes
Description: The effect of varying doses on ISIS 482584 on captopril-induced vascular permeability was evaluated.
Group 1 consisted of 4 mice and was treated with PBS administered subcutaneously twice a week for 3 weeks. No other treatment was administered to Group 1 which served as a control group to measure the basal levels of vascular permeability.
Group 2 consisted of 8 mice and was treated with PBS administered subcutaneously twice a week for 3 weeks. At the end of the treatment period, the mice were intraperitoneally administered 20 μg of captopril. Group 2 served as the control group for captopril-induced vascular permeability.
Group 3 consisted of 4 mice and was treated with PBS administered subcutaneously twice a week for 3 weeks. At the end of the treatment period, the mice were intraperitoneally administered 20 μg of captopril. The mice were also intraperitoneally administered 30 μg of Icatibant (HOE-140). […] served as a positive control for inhibition of captopril-induced vascular permeability.
Groups 4, 5, 6, 7, 8, and 9 consisted of 8 mice each and were treated with 2.5 mg/kg, 5 mg/kg, 10 mg/kg, 20 mg/kg, 40 mg/kg, or 80 mg/kg (corresponding to 5 mg/kg, 10 mg/kg, 20 mg/kg, 40 mg/kg, 80 mg/kg, or 160 mg/kg per week), respectively of ISIS 482584 administered subcutaneously twice a week for 3 weeks. At the end of the treatment period, the mice of all the groups were intraperitoneally administered 20 μg of captopril. Groups 4-9 served as the experimental treatment groups for examining the effect of varying doses of ISIS 482584 on captopril-induced vascular permeability.
All the groups were then injected with 30 mg/kg of Evans Blue solution in the tail vein. The mice were sacrificed 30 min after the Evans Blue solution administration and colons, feet, ears, and intestines were harvested. Blood samples were taken through cardiac puncture.
The harvested tissues were placed in formamide solution overnight to leach out the Evans Blue dye. The formamide solution containing feet and ear tissue was heated to 55° C. and left overnight.

human PKK mRNA = assay: Antisense inhibition of human PKK mRNA in HepaRG cells, 5,000 nM (Example 2); type: cell-based
Summary of the method: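 Chimeric MOE gapmers with full phosphorothioate backbones were tested once at 5,000 nM in electroporated HepaRG cells. After about 24 hours, quantitative PCR measured PKK mRNA relative to untreated control cells.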

PKK mRNA = PKK mRNA in cynomolgus monkey liver (Example 8); type: in vivo; conditions: primates, Example 8
Summary of the method: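 Cynomolgus monkeys were dosed with human antisense oligonucleotides cross-reactive with the rhesus sequence. Liver RNA taken on day 87 or 88, 48 h after the last dose, was assayed by real-time PCR (primer probe set RTS3455) and normalized to cyclophilin. Values are percent PKK mRNA inhibition versus PBS control.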

[2] = Kidney function: plasma BUN and creatinine in cynomolgus monkeys (Example 8)
Description: Prior to the study, the monkeys were kept in quarantine for a 30-day period, during which the animals were observed daily for general health. The monkeys were 2-4 years old and weighed between 2 and 4 kg. Ten groups of four randomly assigned male cynomolgus monkeys each were injected subcutaneously with ISIS oligonucleotide or PBS. PBS solution or ISIS oligonucleotides at a dose of 40 mg/kg were administered initially with a loading regimen consisting of four doses on the first week of the study (days 1, 3, 5, and 7), followed by a maintenance regimen consisting of once weekly administration starting on Day 14 (weeks 2 to 13). Subcutaneous injections were performed in clock-wise rotations at 4 sites on the back; one site per dose. The injection sites were delineated by tattoo, while sedated using ketamine, and were separated by a minimum of 3 cm.
To evaluate the effect of ISIS oligonucleotides on kidney function, the monkeys were fasted overnight. Approximately, 1.5 mL of blood samples were collected from all the study groups. Blood was collected in tubes without anticoagulant for serum separation. The tubes were kept at room temperature for a minimum of 90 min and then centrifuged at 3,000 rpm for 10 min. Levels of BUN and creatinine were measured using a Toshiba 120FR NEO chemistry analyzer (Toshiba Co., Japan).

[3] = dose 5 mg/kg, sc twice a week 3 weeks
[4] = dose 10 mg/kg, sc twice a week 3 weeks
[5] = dose 20 mg/kg, sc twice a week 3 weeks
[6] = dose 40 mg/kg, sc twice a week 3 weeks
[7] = dose 80 mg/kg, sc twice a week 3 weeks
[8] = dose 160 mg/kg, sc twice a week 3 weeks

NC(N)=NCCC[C@@H](N)C(=O)N[C@@H](CCCN=C(N)N)C(=O)N1CCC[C@H]1C(=O)N1C[C@H](O)C[C@H]1C(=O)NCC(=O)N[C@@H](Cc1cccs1)C(=O)N[C@@H](CO)C(=O)N1Cc2ccccc2C[C@@H]1C(=O)N1[C@H](C(=O)N[C@@H](CCCN=C(N)N)C(=O)O)C[C@@H]2CCCC[C@@H]21 [HOE-140, Icatibant, reference compound]
OD600 nm of Evans Blue dye, Colon ([1]; HOE-140 30 μg ip): 0.15
OD600 nm of Evans Blue dye, Ears ([1]; HOE-140 30 μg ip): 0.04
OD600 nm of Evans Blue dye, Feet ([1]; HOE-140 30 μg ip): 0.03
OD600 nm of Evans Blue dye, Intestine ([1]; HOE-140 30 μg ip): 0.10

ISIS 482584: 5-10-5 MOE gapmer targeting murine PKK, GGCATATTGGTTTTTGGAAT; SEQ ID NO: 2244 (antisense eG*eG*e[5mC]*eA*eT*dA*dT*dT*dG*dG*dT*dT*dT*dT*dT*eG*eG*eA*eA*eT)
OD600 nm of Evans Blue dye, Colon [1, 3]: 0.41
OD600 nm of Evans Blue dye, Ears [1, 3]: 0.05
OD600 nm of Evans Blue dye, Feet [1, 3]: 0.10
OD600 nm of Evans Blue dye, Intestine [1, 3]: 0.17
OD600 nm of Evans Blue dye, Colon [1, 4]: 0.41
OD600 nm of Evans Blue dye, Ears [1, 4]: 0.05
OD600 nm of Evans Blue dye, Feet [1, 4]: 0.10
OD600 nm of Evans Blue dye, Intestine [1, 4]: 0.19
OD600 nm of Evans Blue dye, Colon [1, 5]: 0.40
OD600 nm of Evans Blue dye, Ears [1, 5]: 0.07
OD600 nm of Evans Blue dye, Feet [1, 5]: 0.11
OD600 nm of Evans Blue dye, Intestine [1, 5]: 0.20
OD600 nm of Evans Blue dye, Colon [1, 6]: 0.36
OD600 nm of Evans Blue dye, Ears [1, 6]: 0.05
OD600 nm of Evans Blue dye, Feet [1, 6]: 0.10
OD600 nm of Evans Blue dye, Intestine [1, 6]: 0.20
OD600 nm of Evans Blue dye, Colon [1, 7]: 0.21
OD600 nm of Evans Blue dye, Ears [1, 7]: 0.03
OD600 nm of Evans Blue dye, Feet [1, 7]: 0.04
OD600 nm of Evans Blue dye, Intestine [1, 7]: 0.17
OD600 nm of Evans Blue dye, Colon [1, 8]: 0.26
OD600 nm of Evans Blue dye, Ears [1, 8]: 0.05
OD600 nm of Evans Blue dye, Feet [1, 8]: 0.10
OD600 nm of Evans Blue dye, Intestine [1, 8]: 0.15
captopril-induced vascular permeability ([1]; higher doses (Groups 4, 5, and 6) vs PBS control group (Group 2)): reduced levels of captopril-induced vascular permeability

531231 (eT*eA*eT*e[5mC]*eA*d[5mC]*dT*dG*dT*dA*d[5mC]*dT*dA*dG*dT*eT*eT*e[5mC]*e[5mC]*eT) [compound 531231]
% inhibition (human PKK mRNA; HepaRG cells, 5,000 nM antisense oligonucleotide, human PKK mRNA, Table 18): 90%
% inhibition (human PKK mRNA; HepaRG cells, 5,000 nM antisense oligonucleotide, 5-10-5 gapmers, Table 16): 93%
% inhibition (human PKK mRNA; HepaRG cells, 5,000 nM antisense oligonucleotide, 5-10-5 gapmers, Table 17): 91%
% inhibition (human PKK mRNA; HepaRG cells, electroporation with 5,000 nM antisense oligonucleotide, approximately 24 hours, PKK mRNA by RT-PCR (RTS3454), relative to untreated control cells, Table 5 experiment): 98%
% inhibition (human PKK mRNA; HepaRG cells, electroporation with 5,000 nM antisense oligonucleotide, approximately 24 hours, PKK mRNA by RT-PCR (RTS3454), relative to untreated control cells, Table 6 experiment): 86%
% inhibition (human PKK mRNA; HepaRG cells, electroporation, 5,000 nM antisense oligonucleotide, approx. 24 hours, primer probe set RTS3454, relative to untreated control cells, Table 11): 90%
% inhibition (human PKK mRNA; HepaRG cells, electroporation, 5,000 nM antisense oligonucleotide, approx. 24 hours, primer probe set RTS3454, relative to untreated control cells, Table 12): 90%
% inhibition (human PKK mRNA; Table 7, HepaRG cells, electroporation with 5,000 nM antisense oligonucleotide, approx. 24 hours, PKK mRNA by RT-PCR (RTS3454), relative to untreated control cells): 88%
% inhibition (human PKK mRNA; Table 8, HepaRG cells, electroporation with 5,000 nM antisense oligonucleotide, approx. 24 hours, PKK mRNA by RT-PCR (RTS3454), relative to untreated control cells): 95%
% inhibition (human PKK mRNA; Table 9 experiment, HepaRG cells, 20,000 cells per well, electroporation with 5,000 nM antisense oligonucleotide, approx. 24 hours, PKK mRNA by RT-PCR (RTS3454), relative to untreated control cells): 96%
% inhibition (human PKK mRNA; Table 10 experiment, HepaRG cells, 20,000 cells per well, electroporation with 5,000 nM antisense oligonucleotide, approx. 24 hours, PKK mRNA by RT-PCR (RTS3454), relative to untreated control cells): 72%
% inhibition (human PKK mRNA; Table 13, human PKK mRNA in HepaRG cells, 5-10-5 gapmers): 85%
% inhibition (human PKK mRNA; human PKK mRNA in HepaRG cells, 5-10-5 gapmers, Table 14): 85%
% inhibition (human PKK mRNA; human PKK mRNA, HepaRG cells, 5-10-5 motif oligonucleotides targeting SEQ ID NO: 1 and 10): 93%

Tes Ges mCes Aes Aes Gds Tds mCds Tds mCds Tds Tds Gds Gds mCds Aes Aes Aes mCes Ae [ISIS 546254]
inhibition of human PKK mRNA (human PKK mRNA; HepaRG cells, 5,000 nM, electroporation, 24 hours): 95%
inhibiting PKK mRNA and protein expression in primates (PKK mRNA): effective for inhibiting PKK mRNA and protein expression
Plasma BUN ([2]; 40 mg/kg s.c.): 25.7 mg/dL
Plasma Creatinine ([2]; 40 mg/kg s.c.): 0.9 mg/dL
effect on kidney function ([2]; plasma chemistry): well tolerated in terms of the kidney function
